Test results: patent US6924309B2 (Children, Youth and Women's Health Service Incorporated, priority 1999, dated 2005)

Key:
[1] = Thin film autoxidation of arachidonic acid with compounds 16-19 (HPLC)
From the text: Subsequently, the autoxidation of compounds 16-19 and their effects on the autoxidation of arachidonic acid were investigated. In these experiments, a thin film assay method was employed. For each reaction, arachidonic acid was mixed with one of the synthetic compounds 16, 17, 18 or 19 at 1:1 ratio with or without the radical initiator, azobisisobutyronitrile (AIBN). A reverse phase HPLC method was used to simultaneously measure the relative amounts of arachidonic acid and the synthetic compounds 16, 17, 18 or 19 recovered following 60 or 70 hours or 7 days of thin film autoxidation.

[2] = Petri-dish thin film autoxidation of arachidonic acid with thia fatty acids and sulfides (HPLC)
How it was run: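 Arachidonic acid mixed with each sulfur compound at different ratios, lauric acid as internal standard, cast as thin films on 80 mm glass Petri-dishes. Dishes kept under oxygen in a dark desiccator; residual compounds quantified after 1, 2, 3, 5 and 7 days by reverse-phase HPLC with refractive index detection.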

[3] = Stability of thia fatty acids and sulfides as thin film under oxygen (1H NMR); format: physicochemical; details: darkness, up to six weeks
Procedure: Compounds 110 (4.3 mg) and 106 (6 mg) were each dissolved in 5 ml of dichloromethane and added into 250 ml one-neck flasks. Compound 18 (20 mg) and compounds 19, 108, 109 and 111-112 (14-20 mg) were each dissolved in 10 ml of dichloromethane and added into 500 ml flasks. The solvent dichloromethane was then evaporated with continuous rotation of the flasks, allowing the compounds to form thin films. The flasks were flushed with oxygen, sealed and kept in darkness. The compounds in the flasks were redissolved in chloroform-d and analysed by ^1H NMR every two weeks for up to six weeks.
To examine possible reasons for this lack of antioxidative activity, the chemical stability of compounds 18 and 109 in the absence of arachidonic acid was investigated. For comparison, the stability of compounds 19, 106, 108 and 110-112 was also examined. Each compound was studied as a thin film under oxygen as described above. Samples were removed and analysed by ^1H NMR spectroscopy regularly for up to six weeks. […] This is consistent with compound 109 decomposing in the presence of arachidonic acid, but not alone.

[4] = ratio arachidonic acid:compound 1:1, 1 day
[5] = ratio arachidonic acid:compound 1:1, 2 days

Chemical stability in the absence of arachidonic acid [3]: decomposed after 7 days
Structure (SMILES): CCCCC/C=C\C/C=C\C/C=C\C/C=C\CCCCSCC(=O)O [Compound 18, (all-Z)-(eicosa-5,8,11,14-tetraenylthio) acetic acid]
Percentage of arachidonic acid recovered in the presence of the compound ([1]; ratio 1:1, 10% AIBN 60 h): 87%
Percentage of compound recovered (with arachidonic acid) ([1]; ratio 1:1, 10% AIBN 60 h): 57%
Percentage of arachidonic acid recovered in the presence of the compound ([1]; ratio 1:1, no additive 70 h): 98%
Percentage of compound recovered (with arachidonic acid) ([1]; ratio 1:1, no additive 70 h): 99%
Percentage of arachidonic acid recovered in the presence of the compound ([1]; ratio 1:1, no additive 7 day): 68%
Percentage of compound recovered (with arachidonic acid) ([1]; ratio 1:1, no additive 7 day): 28%
Autoxidation of arachidonic acid in the presence of the compound (in words) ([1]; ratio 1:1, with or without AIBN): substantial degree of autoxidation
Antioxidant effect on autoxidation of arachidonic acid (in words) [2]: not significantly inhibited
Arachidonic acid (%) recovered following autoxidation in the presence of the compound [2, 4]: 68%
Compound (%) recovered following autoxidation with arachidonic acid [2, 4]: 26%
Arachidonic acid (%) recovered following autoxidation in the presence of the compound [2, 5]: 29%
Compound (%) recovered following autoxidation with arachidonic acid [2, 5]: 7%
Arachidonic acid (%) recovered following autoxidation in the presence of the compound ([2]; ratio arachidonic acid:compound 1:1, 3 days): 10%
Arachidonic acid (%) recovered following autoxidation in the presence of the compound ([2]; ratio arachidonic acid:compound 1:1, 5 days): 7%
Arachidonic acid (%) recovered following autoxidation in the presence of the compound ([2]; ratio arachidonic acid:compound 1:1, 7 days): 5%
